Patent US20240041806A1, “Eyedrops for Inhibiting Myopia Progression in Children and Screening Method for Inhibitor of Myopia Progression in Children” (Tsubota Laboratory, Inc., priority 2020, published 2024)
Entries after “also recorded” stand apart in the source; their conditions may differ. Like-named read-outs stand apart in the source and are kept apart here.

What was measured:
[1] = tested on: myopia-induced juvenile mouse; assay: Lens-induced myopia (-30 D lens) in juvenile mouse: axial length (SD-OCT) and refraction; assay type: in vivo, mouse (C57BL6J); conditions: for axial elongation of myopia-induced eye / myopic refraction of myopia-induced eye / axial elongation of control eye in which myopia had not been induced: eyedrop once a day for 10 days, 60 μM STF, 100 μM other inhibitors; for axial elongation of myopia-induced eye / myopic refraction of myopia-induced eye: -30 D lens eye; for axial elongation of control eye in which myopia had not been induced: compared with DMSO eyedrop
[2] = tested on: endoplasmic reticulum stress response genes (PERK pathway and ATF6 pathway) in the sclera; conditions: FIG. 8
Protocol: A solution of sodium phenylbutyrate in PBS (4-PBA; 200 mg/kg) or tauroursodeoxycholic acid (TUDCA; 100 mg/kg) was intraperitoneally injected (i.p.) every day during the myopia induction period. Quantitative real-time PCR was performed using StepOnePlus Realtime PCR system with PowerUp SYBR Green Master Mix (Applied Biosystems, CA, USA). Expression level was standardized using β-actin. FIG. 8 illustrates change in gene expression obtained after intraperitoneal injection of 4-PBA every day through the myopia induction period. […] Besides, FIG. 10 illustrates axial elongation (a) and refraction change (b) obtained by eyedrop administration of 0.2% or 2% 4-PBA to a mouse during myopia induction. FIG. 11 illustrates axial elongation (b) and refraction change (a) obtained by intraperitoneal injection of TUDCA every day over the myopia induction period.

[3] = tested on: lens of myopia-induced juvenile mouse; conditions: -30 D lens wearing group
Protocol: It was examined whether or not a difference in the dosage form of 4-PBA affects the change in the lens. In accordance with the description given above in “Experimental Method”, 4-PBA was eye-dropped or intraperitoneally administered to a myopia-induced juvenile mouse, and the thickness of the lens was measured with SD-OCT in the same manner as in the measurement of the axial length.

[4] = eyedrop administration of 2% 4-PBA as printed, 1st and 3rd weeks, FIG. 9

Question: Which “axial elongation of myopia-induced eye” value [1] does the source give for `Cc1cc(=O)oc2c(C=O)c(O)ccc12` [4μ8C] here?
Answer: neither axial elongation nor myopic refraction was inhibited

Question: What about the “myopic refraction of myopia-induced eye” value [1] of the same compound?
Answer: neither axial elongation nor myopic refraction was inhibited

Question: With `O=C(Nc1cnn(Cc2ccc(C(F)(F)F)cc2C(F)(F)F)c1)c1cc(-c2ccco2)on1` [Ceapin-A7] as the compound, how does the “axial elongation of myopia-induced eye” value [1] read?
Answer: neither axial elongation nor myopic refraction was inhibited

Question: And the “myopic refraction of myopia-induced eye” value [1]?
Answer: neither axial elongation nor myopic refraction was inhibited

Question: And the “axial elongation of control eye in which myopia had not been induced” value [1]?
Answer: the eye axis of the control eye also elongated

Question: What does the source list for `Cn1cc(-c2ccc3c(c2)CCN3C(=O)Cc2cccc(C(F)(F)F)c2)c2c(N)ncnc21` [GSK2606414]?
Answer: axial elongation of myopia-induced eye [1]: neither axial elongation nor myopic refraction was inhibited; myopic refraction of myopia-induced eye [1]: neither axial elongation nor myopic refraction was inhibited; axial elongation of control eye in which myopia had not been induced [1]: the eye axis of the control eye also elongated

Question: With `C[C@H](CCC(=O)NCCS(=O)(=O)O)[C@H]1CC[C@H]2[C@@H]3[C@@H](O)C[C@@H]4C[C@H](O)CC[C@]4(C)[C@H]3CC[C@]12C` [TUDCA, tauroursodeoxycholic acid] as the compound, how does the physiological axial elongation ([1]; intraperitoneal TUDCA 100 mg/kg every day during myopia induction, FIG. 11) read?
Answer: did not inhibit physiological axial elongation

Question: And the myopic refraction ([1]; intraperitoneal TUDCA 100 mg/kg every day during myopia induction, FIG. 11(a))?
Answer: myopic refraction is inhibited

Question: What about the “axial elongation (pathologic axial elongation)” value ([1]; intraperitoneal TUDCA 100 mg/kg every day during myopia induction, FIG. 11(b)) of the same compound?
Answer: inhibited pathologic axial elongation; also recorded: axial elongation is inhibited

Question: How did the “axial elongation, dose dependence” value ([1]; eyedrop administration of 0.2% or 2% 4-PBA during myopia induction, FIG. 10(a)) turn out when Sodium phenylbutyrate [4-PBA] was run?
Answer: dose-dependent effectiveness was found; also recorded: inhibits axial elongation dose-dependently

Question: And the “myopic refraction, dose dependence” value ([1]; eyedrop administration of 0.2% or 2% 4-PBA during myopia induction, FIG. 10(b))?
Answer: dose-dependent effectiveness was found; also recorded: inhibits myopic refraction dose-dependently

Question: What about the axial elongation [1, 4] of the same compound?
Answer: significantly inhibited to the same extent

Question: And the myopic refraction [1, 4]?
Answer: significantly inhibited to the same extent

Question: What about the axial elongation ([1]; intraperitoneal 4-PBA 200 mg/kg/day, 1st week and 3rd week of myopia induction (LIM), FIG. 9(a)) of the same compound?
Answer: the axial elongation is inhibited

Question: What about the myopic refraction ([1]; intraperitoneal 4-PBA 200 mg/kg/day, 1st week and 3rd week of myopia induction (LIM), FIG. 9(b)) of the same compound?
Answer: the myopic refraction is inhibited

Question: What about the “expression of endoplasmic reticulum stress response genes in sclera of myopia induced eyes” value ([2]; 4-PBA 200 mg/kg/day intraperitoneal vs PBS) of the same compound?
Answer: the increase is inhibited

Question: What about the “expression of genes disposed downstream of the PERK pathway and the ATF6 pathway” value ([2]; eyedrop administration of 2% 4-PBA as printed) of the same compound?
Answer: significantly inhibited

Question: And the “lens thickening caused by myopia induction (LIM)” value ([3]; eyedrop administration of 4-PBA, FIG. 14(B))?
Answer: lens thickening was not caused

Question: What about the “lens thickening caused by myopia induction (LIM)” value ([3]; intraperitoneal administration of 4-PBA, FIG. 14(A)) of the same compound?
Answer: did not affect lens thickening
